Where a name gives a salt, the structure may show the parent alone. Read-outs that look alike come from different tables or passages of the source.
Assays:
Calu-3 cells [1] = test system: Calu-3 cells
[2] = Uninfected HeLa-ACE2 24 h live/dead cytotoxicity counter screen; format: cell-based, human; details: human, uninfected HeLa-ACE2 cells
in vitro = details: human
SARS-CoV-2 [3] = assay: microbe, parasite or virus in culture; format: cell-based; details: for Emax: Severe acute respiratory syndrome coronavirus 2, HeLa-ACE2, 24 h, curve-fit effect at infinite concentration, average, read-out: HeLa-ACE2 CoV-2 Sinf Average
SARS-CoV-2 [4] = assay: microbe, parasite or virus in culture; format: cell-based; details: for Emax: Severe acute respiratory syndrome coronavirus 2, Calu-3, 48 h
HeLa-ACE2 cells [5] = assay: cells; details: Homo sapiens; for Emax: HeLa-ACE2, 24 h, read-out: HeLa-ACE2 cell count Sinf Average
Calu-3 cells [6] = assay: cells; details: Homo sapiens; for Emax: Calu-3, 48 h
HeLa-ACE2 cells [7] = assay: Uninfected HeLa-ACE2 24 h live/dead cytotoxicity counter screen; format: cell-based, human; details: for HeLa-ACE2 uninfected cytotoxicity Sinf Average: curve-fit effect at infinite concentration; for HeLa-ACE2 uninfected cytotoxicity Sinf Average (%): Sinf average of the curves
SARS-CoV-2 [8] = assay: microbe, parasite or virus in culture; format: cell-based; details: HeLa-ACE2
[9] = geometric mean of replicates, read-out: HeLa-ACE2 uninfected cytotoxicity CC50 GeoMean
[10] = reconfirmed hits, read-out: HeLa-ACE2 Uninf. cells CC50
[11] = Calu-3 uninfected cytotoxicity CC50 GeoMean (µM)
[12] = Severe acute respiratory syndrome coronavirus 2, HeLa-ACE2, reconfirmed hits, read-out: HeLa-ACE2 SARS-CoV-2 EC50
[13] = Severe acute respiratory syndrome coronavirus 2, HeLa-ACE2, geometric mean of replicates, read-out: HeLa-ACE2 CoV-2 EC50 GeoMean
[14] = Sinf average of the curves, read-out: Calu-3 CoV-2 Sinf Average (%)
[15] = Severe acute respiratory syndrome coronavirus 2, Calu-3, geometric mean of replicates, read-out: Calu-3 CoV-2 EC50 GeoMean
[16] = Severe acute respiratory syndrome coronavirus 2, Calu-3, reconfirmed hits, read-out: Calu-3 SARS-CoV-2 EC50
[17] = HeLa-ACE2, read-out: HeLa-ACE2 cell count EC50 GeoMean (µM), geometric mean of replicates
[18] = read-out: Calu-3 cell count Sinf Average (%)
[19] = Calu-3, read-out: Calu-3 cell count EC50 GeoMean (µM), geometric mean of replicates
[20] = uninfected cells, Fig. 2b group, read-out: HeLa-ACE2 CC50
[21] = unrounded geometric mean, read-out: HeLa-ACE2 uninfected cytotoxicity CC50 GeoMean
[22] = Calu-3 uninfected cytotoxicity CC50 GeoMean, unrounded geometric mean
[23] = Severe acute respiratory syndrome coronavirus 2, HeLa-ACE2, unrounded geometric mean, read-out: HeLa-ACE2 CoV-2 EC50 GeoMean
[24] = curve-fit effect at infinite concentration, average, read-out: Calu-3 CoV-2 Sinf Average
[25] = Severe acute respiratory syndrome coronavirus 2, Calu-3, unrounded geometric mean, read-out: Calu-3 CoV-2 EC50 GeoMean
[26] = HeLa-ACE2, read-out: HeLa-ACE2 cell count EC50 GeoMean, unrounded geometric mean
[27] = read-out: Calu-3 cell count Sinf Average
[28] = Calu-3, read-out: Calu-3 cell count EC50 GeoMean, unrounded geometric mean
[29] = Calu-3 uninfected cytotoxicity CC50 GeoMean

Compound	uninfected Calu-3 CC50 [μM] (Calu-3 cells [1])	CC50 at 24 h [2, 9] [µM]	CC50 at 48 h (in vitro; [11]) [µM]	EC50 (SARS-CoV-2 [3]; [13]) [µM]	Emax (SARS-CoV-2 [4]; [14]) [%]	EC50 (SARS-CoV-2 [4]; [15]) [µM]	EC50 (HeLa-ACE2 cells [5]; [17]) [µM]	Emax (Calu-3 cells [6]; [18]) [%]	EC50 (Calu-3 cells [6]; [19]) [µM]	CC50 at 24 h [2, 21] [µM]	EC50 (SARS-CoV-2 [3]; [23]) [µM]	Emax (SARS-CoV-2 [4]; [24]) [%]	EC50 (SARS-CoV-2 [4]; [25]) [µM]	EC50 (HeLa-ACE2 cells [5]; [26]) [µM]	Emax (Calu-3 cells [6]; [27]) [%]	EC50 (Calu-3 cells [6]; [28]) [µM]	also measured
CC(=O)N1C[C@H](O)C[C@H]1C(=O)N[C@@H](CCCNC(=N)N)C(=O)c1nc2ccccc2s1 [RWJ-56423]	> 29.867 ×÷ 1 (n=3) μM	> 39.8	> 29.9	> 9.59	89	1.23	> 9.59	100	2.85	–	–	–	–	–	–	–	CC50 at 24 h [2, 10]: > 40 µM; CC50 at 48 h (in vitro; Calu-3 Uninf. cells CC50 (µM)): > 30 µM; EC50 (SARS-CoV-2 [3]; [12]): > 9.6 µM; EC50 (SARS-CoV-2 [4]; [16]): 1.23 µM
CC[C@H]1CN2CCc3cc(OC)c(OC)cc3[C@@H]2C[C@@H]1C[C@H]1NCCc2cc(OC)c(OC)cc21 [Emetine]	–	–	–	–	–	–	–	–	–	0.34	0.0601	100	0.444	0.783	78	> 3.56	Calu-3 uninfected cytotoxicity Sinf Average (Calu-3 cells [1]; human): -47%; CC50 at 24 h [2, 20]: ≤ 3 µM; HeLa-ACE2 uninfected cytotoxicity Sinf Average (HeLa-ACE2 cells [7]): -99%; CC50 (in vitro; [22]): > 8.87 µM; Emax (SARS-CoV-2 [3]): 100%; Emax (HeLa-ACE2 cells [5]): 98%
C[C@]12O[C@H](C[C@]1(O)CO)n1c3ccccc3c3c4c(c5c6ccccc6n2c5c31)CNC4=O [Lestaurtinib]	–	–	–	–	–	–	–	–	–	0.758	0.546	91	0.674	0.614	100	> 4.71	Calu-3 uninfected cytotoxicity Sinf Average (Calu-3 cells [1]; human): -98%; CC50 at 24 h [2, 20]: ≤ 3 µM; HeLa-ACE2 uninfected cytotoxicity Sinf Average (HeLa-ACE2 cells [7]): -100%; CC50 (in vitro; [22]): > 20.1 µM; Emax (SARS-CoV-2 [3]): 99%; Emax (HeLa-ACE2 cells [5]): 102%
CNC(=O)n1ccc2cc(Oc3ccnc(NC(=O)c4ccc(C5CCN(CCO)CC5)cc4)c3)c(OCCOC)cc21 [E-7090]	–	–	–	–	–	–	–	–	–	21.2	2.64	62	0.753	> 9.59	73	> 2.59	uninfected Calu-3 CC50 (Calu-3 cells [1]): 14.98 ×÷ 1.32 (n=3) μM; Calu-3 uninfected cytotoxicity Sinf Average (Calu-3 cells [1]; human, 48 h): -97%; HeLa-ACE2 uninfected cytotoxicity Sinf Average (HeLa-ACE2 cells [7]): -100%; CC50 at 48 h (in vitro; [29]): 15 µM; Emax (SARS-CoV-2 [3]): 100%
CCCCCC[C@H]1C(=O)O[C@H](C)[C@H](NC(=O)c2cccc(NC=O)c2O)C(=O)O[C@@H](C)[C@@H]1OC(=O)CC(C)C [Antimycin A]	–	> 39.8	–	> 9.59	93	< 0.0277	> 9.59	48	0.22	–	–	–	–	–	–	–	Calu-3 uninfected cytotoxicity CC50 GeoMean (Calu-3 cells [1]; human): > 0.6084 µM; uninfected Calu-3 CC50 [μM] (Calu-3 cells [1]; human): > 0.608 ×÷ 246.09 (n=2) μM; HeLa-ACE2 uninfected cytotoxicity Sinf Average (%) (HeLa-ACE2 cells [7]): -100%
N=C(N)c1ccc2cc(OC(=O)c3ccc(CNC(=O)CCCC(=O)O)o3)ccc2c1 [TO-195]	> 29.867 ×÷ 1 (n=3) μM	> 39.8	> 29.9	> 6.42	91	0.657	> 9.59	84	1.16	–	–	–	–	–	–	–	Calu-3 uninfected cytotoxicity Sinf Average (%) (Calu-3 cells [1]; human, 48 h): -100%; CC50 at 24 h [2, 10]: > 40 µM; CC50 at 48 h (in vitro; Calu-3 Uninf. cells CC50 (µM)): > 30 µM; EC50 (SARS-CoV-2 [3]; [12]): > 6.4 µM; EC50 (SARS-CoV-2 [4]; [16]): 0.657 µM
C=CC(=O)Nc1cc(Nc2nccc(-c3cn(C)c4ccccc34)n2)c(OC)cc1N(C)CCN(C)C [Osimertinib]	–	–	–	–	–	–	–	–	–	–	–	–	–	–	–	–	SI in Calu-3 (SARS-CoV-2 [4]; CC50/EC50): < 2; EC50 ratio between the standard 24 h and the TOA assay (SARS-CoV-2 [8]): > 8
O=c1[nH]c2ccc(C(F)(F)F)cc2c(-c2cc(Cl)ccc2O)c1CCO [BMS-223131]	> 29.867 ×÷ 1 (n=3) μM	21.4	> 29.9	> 9.59	100	5.14	> 9.59	100	> 9.98	–	–	–	–	–	–	–	Calu-3 uninfected cytotoxicity Sinf Average (%) (Calu-3 cells [1]; human, 48 h): -100%; HeLa-ACE2 uninfected cytotoxicity Sinf Average (%) (HeLa-ACE2 cells [7]): -100%
NC(N)=Nc1ncc(Cl)c2ccc(-c3cccc(C(=O)O)c3)cc12 [UK-356202]	> 29.875 ×÷ 1 (n=2) μM	> 39.8	> 29.9	> 9.59	85	1.92	> 9.59	98	> 7.28	–	–	–	–	–	–	–	–
CCc1ccc(C2=CC(C)(C)Sc3ccc(C#Cc4ccc(C(=O)O)cc4)cc32)cc1 [AGN-194310]	–	–	–	–	–	–	–	–	–	> 39.8	–	85	0.597	–	100	–	uninfected Calu-3 CC50 (Calu-3 cells [1]): > 29.867 ×÷ 1 (n=3) μM; Calu-3 uninfected cytotoxicity Sinf Average (Calu-3 cells [1]; human): -100%; CC50 (in vitro; [29]): > 29.9 µM; EC50 (SARS-CoV-2 [3]; Severe acute respiratory syndrome coronavirus 2, HeLa-ACE2, read-out: HeLa-ACE2 CoV-2 EC50 GeoMean): > 9.59 µM; EC50 (HeLa-ACE2 cells [5]; HeLa-ACE2, read-out: HeLa-ACE2 cell count EC50 GeoMean): > 9.59 µM; EC50 (Calu-3 cells [6]; Calu-3, read-out: Calu-3 cell count EC50 GeoMean): > 7.77 µM
N=C(N)Nc1ccc(C(=O)Oc2ccc(S(N)(=O)=O)cc2)cc1 [Ono-3307]	> 29.867 ×÷ 1 (n=3) μM	> 39.8	> 29.9	> 9.59	96	1.6	> 9.59	99	3.58	–	–	–	–	–	–	–	CC50 at 24 h [2, 10]: > 40 µM; CC50 at 48 h (in vitro; Calu-3 Uninf. cells CC50 (µM)): > 30 µM; EC50 (SARS-CoV-2 [3]; [12]): > 9.6 µM; EC50 (SARS-CoV-2 [4]; [16]): 1.6 µM
CN(C)C(=O)COC(=O)Cc1ccc(OC(=O)c2ccc(NC(=N)N)cc2)cc1 [Camostat mesylate]	–	–	–	–	–	–	–	–	–	> 39.8	> 9.59	89	0.0536	> 9.59	78	0.0913	CC50 (in vitro; [22]): > 29.9 µM
CC(=N)N1CCC(Oc2ccc(N(Cc3ccc4ccc(C(=N)N)cc4c3)S(=O)(=O)CC(=O)O)cc2)CC1 [YM 60828]	> 29.867 ×÷ 1 (n=3) μM	> 39.8	> 29.9	> 9.59	–	3.18	> 9.59	100	6.81	–	–	–	–	–	–	–	–

Source: paper PMC8175350, “Drug repurposing screens identify chemical entities for the development of COVID-19 interventions” (Nature Communications, 2021)
